How the values were obtained:
VSMCs [1] = assay: Hypoxia (CoCl2) induced oxidative stress in VSMCs (DCFDA); assay type: cell-based
Description: This study was performed to determine whether intracellular oxidative stress in VSCMs is derived from mitochondrial dysfunction. To perform this study, VSMCs were incubated with cobalt chloride, a known stabilizer of HIF1a. Cobalt chloride binding to HIF1a prevents the degradation of HIF1a and thus results in a cellular hypoxia state. HIF1a has been implicated in cancer biology as well as a number of other pathophysiologies, specifically in areas of vascularization and angiogenesis, energy metabolism, cell survival, and tumor invasion. Under normal circumstances, after injury, HIF1a is degraded by the enzyme prolyl hydroxylase (PHD). The continued up-regulation of HIF1a (mimicked by cobalt chloride) promotes tumor growth and metastasis through its role in initiating angiogenesis and regulating cellular metabolism to overcome hypoxia. Hypoxia promotes apoptosis in both normal and tumor cells. Additionally, hypoxia generates significant intracellular oxidative stress.
To perform the study, VSMCs (10,000 cells/well) were plated in a 96-well plate and left to adhere overnight. Next, the medium was changed to a medium supplemented with 50 μM CoCl2 for 19 hours. The next day, cells were washed and incubated for 1 hour with 20 μM DCFDA in the presence of a vehicle (solvent for CoCl2 and vitamin K2 (MK-7)/UQ10), 10 μM vitamin K2 (MK-7), or 10 μM UQ10 in medium. The medium was then changed to a medium supplemented with vehicle, vitamin K2 (MK-7)/UQ10, or CoCl2, and fluorescent was measured for 6 hours. Fluorescence intensity was normalized for cell count.

VSMCs [2] = assay: ATP increase in VSMCs, 48 hours, with CoCl2 arm (luminescence); assay type: cell-based
Description: (§1) This study was performed to further investigate the origin of ATP production that is influenced by vitamin K2 (MK-7). To perform this study, VSCMs (5000 cells/well) were plated in 96-well plates and left to adhere overnight. Next, cells were incubated for 48 hours with either vehicle, CoCl2 (100 μM), vitamin K2 (MK-7) (10 μM), or UQ10 (10 μM). Hoechst was added to correct for cell number (1 μg/mL). Next, ATP was measured using mammalian lysis buffer for 5 minutes, after which 50 μL ATP substrate solution was added to the wells and incubated for 10 minutes in a dark environment. Finally, medium was transferred to a white plate to measure luminescence.

[3] = system: whole-blood thrombogenicity; assay: T-TAS Total Thrombus-formation Analysis of whole blood from treated Sprague-Dawley rats; assay type: in vivo; conditions: for AUC: area under flow pressure curve for 30 min, dabigatran 7.5, rivaroxaban 5.0, MK-7 1.5 mg/kg/day; for AUC / OT (time, min) / T10 (time, min): two weeks in diet; for OT (time, min) / T10 (time, min): dabigatran 7.5, rivaroxaban 5.0, vitamin K2 (MK-7) 1.5 mg/kg/day
Description: (§2) This experiment was conducted in order to evaluate the effects of vitamin K2 (MK-7) on the anticoagulant activity of the new oral anticoagulants (NOAC) rivaroxaban and dabigatran using the T-TAS Total Thrombus-formation Analysis System. The T-TAS Total Thrombus-formation Analysis System is a microchip-based flow chamber system capable of evaluating whole-blood thrombogenicity. It is a useful tool in monitoring the efficacy of anticoagulants on thrombus formation and predicting the risk of bleeding complications. To perform the study, 45 wild-type male Sprague-Dawley and 45 transgenic male Ren-2 rats [TGR(mREN-2)27] at the age of 10-11 weeks at the beginning of the treatment period were purchased from animal facility IKEM-CEM Institute of Clinical and Experimental Medicine (Prague, Czech Republic). All animals in the experiment were housed in individually ventilated cages (2-3 rats per cage) and kept in the animal rooms of JCET at a relative humidity of 55±10%, a temperature of 22±2° C., and a light cycle of 7 AM to 7 PM. The rats had free access to food and water. After delivery, animals were randomly divided into 10 experimental groups (5 or 10 rats per group), as indicated below in Table 1. Four days before the start of the treatment, the first part of animals' body weight and food intake was measured in selected representative three cages (rats n=9) to calculate the appropriate amount of tested compounds required for addition to the diet to obtain the dosing indicated in Table 1. It was estimated that food intake was approximately 30 g of chow per rat per day. The animals were fed for two weeks with AIN-93G diet supplemented with rivaroxaban or dabigatran with/without Vitamin K2 (MK-7), as indicated in Table 1. The animals were then anesthetized in order to draw blood samples for further analysis. The body mass of the rats was measured at the beginning and at the end of treatment. At the beginning and at the end of treatment, the food intake per day was measured in representative group of animals to monitor the daily dosing of tested compounds (per kg of body mass). The thrombus formation in vitro was measured in whole blood using a microchip-based flow chamber system according to manufacturers' protocol (Total Thrombus-formation Analyser System, T-TAS; Fujimori Kogyo Co., Ltd., Tokyo, Japan). For the analysis, citrated whole blood (480 μl) was mixed with 20 μl of 300 mM CaCl2 solution containing 1.25 mg/ml CTI (Corn Trypsin Inhibitor). […] The obtained flow pressure pattern for each sample was used to analyze thrombus formation based on the following estimated parameters: […]

[4] = system: whole-blood thrombogenicity; assay: T-TAS Total Thrombus-formation Analysis of whole blood from treated TGR rats; assay type: in vivo, transgenic Ren-2 rats [TGR(mREN-2)27]; conditions: for AUC: area under flow pressure curve for 30 min, dabigatran 7.5, rivaroxaban 5.0, MK-7 1.5 mg/kg/day; for AUC / OT (time, min) / T10 (time, min): two weeks in diet; for OT (time, min) / T10 (time, min): dabigatran 7.5, rivaroxaban 5.0, vitamin K2 (MK-7) 1.5 mg/kg/day
Description: as §2

VSMCs [5] = assay: ATP increase in VSMCs, 24 hours (luminescence); assay type: cell-based; conditions: 10 μM
Description: This study was performed to determine if vitamin K2 (MK-7) affects ATP generation. ATP is generated via glycolysis in the cytoplasm and via both the Krebs-cycle and oxidative phosphorylation in the mitochondria. ATP generation via glycolysis delivers only 2 ATP, whereas ATP generation in the mitochondria generates some 32 ATP.
as §1, with “To” for “This study was performed to further investigate the origin of ATP production that is influenced by vitamin K2 (MK-7). To”, “24” for “48”, “vehicle,” for “vehicle, CoCl2 (100 μM),”, “minutes” for “minutes,”, “Finally, the” for “Finally,”, “luminescence” for “luminescence.”

[6] = system: human vascular smooth muscle cells (hVSMCs); assay: ATP measurement in hVSMCs with warfarin and/or vitamin K2 (luminescence); assay type: cell-based; conditions: 24 hours; warfarin 10 or 50 μM, vitamin K2 (MK-7) 10 μM
Description: This study was performed in order to determine the effect of vitamin K2 (MK-7) on warfarin-induced oxidative stress in muscles. To perform this study, human vascular smooth muscle cells (hVSMCs; 5,000 cells/well) were plated in 96-well dark plates and left to adhere overnight. Next, cells were incubated for 24 hours with either vehicle only (as blank control), warfarin (10 or 50 μM), vitamin K2 (MK-7) (10 μM), or a combination of warfarin (50 μM) and vitamin K2 (MK-7) (10 μM). Hoechst was added to correct for cell number (1 μg/mL). Next, ATP was measured using mammalian lysis buffer for 5 minutes after which 50 μL ATP substrate solution was added to the wells and incubated for 10 minutes in a dark environment. Finally, medium was transferred to a white plate to measure luminescence.

VSMCs [7] = assay: Warfarin-induced oxidative stress in VSMCs, warfarin concentration series (DCFDA); assay type: cell-based; conditions: warfarin 10 to 100 μM, fluorescence over 6 hours
Description: It is known that the level of reactive oxygen species in cells can be measured by measuring the conversion of 2′,7′-dichlorofluorescein diacetate (DCFDA) to the fluorescent dye 2′,7′-dichlorofluorescein (DCF). The fluorescence generated by cells subjected to DCFDA is directly proportional to the amount of oxidized DCFDA to DCF.
In this study, vitamin K metabolism was blocked using the vitamin K-antagonist warfarin. The study was conducted to investigate whether interference with vitamin K metabolism would cause intracellular oxidative stress. To perform the study, VSMCs (10,000 cells/well) were plated in 96-well plates and left to adhere overnight. Next, cells were incubated for 1 hour with 20 μM DCFDA. The medium was then changed to a medium supplemented with different concentrations of warfarin ranging from 10 to 100 μM, and fluorescence intensity was measured over 6 hours. Fluorescence was normalized for number of cells.

Compound	AUC [3]	OT (time, min) [3] [min]	T10 (time, min) [3] [min]	AUC [4]	OT (time, min) [4] [min]	T10 (time, min) [4] [min]	further results
[Cl][Co][Cl] [CoCl2, cobalt chloride]	–	–	–	–	–	–	oxidative stress induced by the hypoxia inducer (VSMCs [1]; 50 μM CoCl2): induces increased oxidative stress; ATP production compared to vehicle (VSMCs [2]; CoCl2 100 μM, vitamin K2 (MK-7) 10 μM): decreased ATP production
[H]/N=C(/N)c1ccc(NCc2nc3cc(C(=O)N(CCC(=O)O)c4ccccn4)ccc3n2C)cc1 [Dabigatran]	2039 ± 32.5	5.753 ± 0.587	3.386 ± 0.237	1898 ± 80.66	8.011 ± 1.317	4.780 ± 0.7073	–
O=C(NC[C@H]1CN(c2ccc(N3CCOCC3=O)cc2)C(=O)O1)c1ccc(Cl)s1 [Rivaroxaban]	2011 ± 28.7	6.133 ± 0.518	3.732 ± 0.266	1876 ± 91.28	8.324 ± 1.578	4.996 ± 0.8216	thrombus formation ([3]; anticoagulant alone): inhibited thrombus formation; thrombus formation ([4]; anticoagulant alone): also inhibited thrombus formation
COC1=C(OC)C(=O)C(C/C=C(\C)CC/C=C(\C)CC/C=C(\C)CC/C=C(\C)CC/C=C(\C)CC/C=C(\C)CC/C=C(\C)CC/C=C(\C)CC/C=C(\C)CCC=C(C)C)=C(C)C1=O [UQ10]	–	–	–	–	–	–	hypoxia induced oxidative stress (VSMCs [1]; 50 μM CoCl2 for 19 hours, test substance 10 μM, 6 hours): This effect was not found; ATP production compared to the vehicle (VSMCs [5]): only vitamin K2 (MK-7) increased ATP production; ATP levels compared to CoCl2 (VSMCs [2]; 10 μM vs CoCl2 100 μM): significant higher ATP levels
CC(=O)CC(c1ccccc1)c1c(O)c2ccccc2oc1=O (stereo not drawn) [warfarin]	–	–	–	–	–	–	cell ATP / ATP generation [6]: does not affect ATP generation; intracellular oxidative stress (VSMCs [7]): did cause intracellular oxidative stress

— US20200289521A1, “USE OF VITAMIN K IN COMBINATION WITH ANTICOAGULANTS” (KAYDENCE PHARMA AS, priority 2019, published 2020)
